# From ChEMBL document CHEMBL3045868, “Synthesis and antibacterial activities of para-alkoxy phenyl--ketoaldehyde derivatives” (Med Chem Res, 2013)
# How the values were obtained:
# Format in all cases: functional
# [1] = system: Staphylococcus aureus; assay: Antibacterial activity against Staphylococcus aureus clinical isolate 14 assessed as growth inhibition at pH 9 after 16 to 18 hr by NCCLS agar dilution method
# [2] = system: Staphylococcus aureus; assay: Antibacterial activity against Staphylococcus aureus clinical isolate 9 assessed as growth inhibition at pH 9 after 16 to 18 hr by NCCLS agar dilution method
# [3] = system: Staphylococcus aureus; assay: Antibacterial activity against Staphylococcus aureus clinical isolate 6 assessed as growth inhibition at pH 7 after 16 to 18 hr by NCCLS agar dilution method
# [4] = system: Staphylococcus aureus; assay: Antibacterial activity against Staphylococcus aureus clinical isolate 3 assessed as growth inhibition at pH 7 after 16 to 18 hr by NCCLS agar dilution method
# [5] = system: Staphylococcus aureus; assay: Antibacterial activity against Staphylococcus aureus clinical isolate 2 assessed as growth inhibition at pH 7 after 16 to 18 hr by NCCLS agar dilution method
# [6] = system: Staphylococcus aureus; assay: Antibacterial activity against Staphylococcus aureus clinical isolate 24 assessed as growth inhibition at pH 5 after 16 to 18 hr by NCCLS agar dilution method
# [7] = system: Staphylococcus aureus; assay: Bactericidal activity against Staphylococcus aureus clinical isolate 6 after 24 hr; details: isolate 6, 24 h
# [8] = system: Staphylococcus aureus; assay: Bactericidal activity against Staphylococcus aureus clinical isolate 3 after 24 hr; details: isolate 3, 24 h
# [9] = system: Staphylococcus aureus; assay: Antibacterial activity against Staphylococcus aureus clinical isolate 23 assessed as growth inhibition at pH 5 after 16 to 18 hr by NCCLS agar dilution method
# [10] = system: Staphylococcus aureus; assay: Antibacterial activity against Staphylococcus aureus clinical isolate 1 assessed as growth inhibition at pH 9 after 16 to 18 hr by NCCLS agar dilution method
# [11] = system: Staphylococcus aureus; assay: Antibacterial activity against Staphylococcus aureus clinical isolate 23 assessed as growth inhibition at pH 7 after 16 to 18 hr by NCCLS agar dilution method
# [12] = system: Staphylococcus aureus; assay: Antibacterial activity against Staphylococcus aureus clinical isolate 22 assessed as growth inhibition at pH 7 after 16 to 18 hr by NCCLS agar dilution method
# [13] = system: Staphylococcus aureus; assay: Antibacterial activity against Staphylococcus aureus clinical isolate 19 assessed as growth inhibition at pH 7 after 16 to 18 hr by NCCLS agar dilution method
# [14] = system: Staphylococcus aureus; assay: Antibacterial activity against Staphylococcus aureus clinical isolate 13 assessed as growth inhibition at pH 7 after 16 to 18 hr by NCCLS agar dilution method
# [15] = system: Staphylococcus aureus; assay: Antibacterial activity against Staphylococcus aureus clinical isolate 9 assessed as growth inhibition at pH 7 after 16 to 18 hr by NCCLS agar dilution method
# [16] = system: Staphylococcus aureus; assay: Antibacterial activity against Staphylococcus aureus clinical isolate 11 assessed as growth inhibition at pH 5 after 16 to 18 hr by NCCLS agar dilution method
# [17] = system: Staphylococcus aureus; assay: Antibacterial activity against Staphylococcus aureus clinical isolate 10 assessed as growth inhibition at pH 5 after 16 to 18 hr by NCCLS agar dilution method
# [18] = system: Staphylococcus aureus; assay: Antibacterial activity against Staphylococcus aureus clinical isolate 9 assessed as growth inhibition at pH 5 after 16 to 18 hr by NCCLS agar dilution method
# [19] = system: Staphylococcus aureus; assay: Antibacterial activity against Staphylococcus aureus clinical isolate 8 assessed as growth inhibition at pH 5 after 16 to 18 hr by NCCLS agar dilution method
# [20] = system: Staphylococcus aureus; assay: Antibacterial activity against Staphylococcus aureus clinical isolate 21 assessed as growth inhibition at pH 9 after 16 to 18 hr by NCCLS agar dilution method
# [21] = system: Staphylococcus aureus; assay: Antibacterial activity against Staphylococcus aureus clinical isolate 18 assessed as growth inhibition at pH 9 after 16 to 18 hr by NCCLS agar dilution method
# [22] = system: Staphylococcus aureus; assay: Antibacterial activity against Staphylococcus aureus clinical isolate 6 assessed as growth inhibition after 16 to 18 hr by NCCLS agar dilution method
# [23] = system: Staphylococcus aureus; assay: Antibacterial activity against Staphylococcus aureus clinical isolate 3 assessed as growth inhibition after 16 to 18 hr by NCCLS agar dilution method
# [24] = system: Staphylococcus aureus; assay: Antibacterial activity against Staphylococcus aureus clinical isolate 2 assessed as growth inhibition after 16 to 18 hr by NCCLS agar dilution method
# [25] = system: Helicobacter pylori; assay: Antibacterial activity against Helicobacter pylori 06-8 assessed as growth inhibition after 16 to 18 hr NCCLS agar dilution method
# [26] = system: Helicobacter pylori; assay: Antibacterial activity against Helicobacter pylori 05-5 assessed as growth inhibition after 16 to 18 hr NCCLS agar dilution method
# [27] = system: Escherichia coli; assay: Antibacterial activity against Escherichia coli ATCC 25922 assessed as growth inhibition after 16 to 18 hr NCCLS agar dilution method
# [28] = system: Helicobacter pylori; assay: Antibacterial activity against Helicobacter pylori 06-6 assessed as growth inhibition after 16 to 18 hr NCCLS agar dilution method
# [29] = system: Helicobacter pylori; assay: Antibacterial activity against Helicobacter pylori 06-4 assessed as growth inhibition after 16 to 18 hr NCCLS agar dilution method
# [30] = system: Staphylococcus aureus; assay: Antibacterial activity against Staphylococcus aureus clinical isolate 17 assessed as growth inhibition at pH 5 after 16 to 18 hr by NCCLS agar dilution method
# [31] = system: Staphylococcus aureus; assay: Antibacterial activity against Staphylococcus aureus clinical isolate 16 assessed as growth inhibition at pH 5 after 16 to 18 hr by NCCLS agar dilution method
# [32] = system: Staphylococcus aureus; assay: Antibacterial activity against Staphylococcus aureus clinical isolate 14 assessed as growth inhibition at pH 5 after 16 to 18 hr by NCCLS agar dilution method
# [33] = system: Staphylococcus aureus; assay: Antibacterial activity against Staphylococcus aureus clinical isolate 13 assessed as growth inhibition at pH 5 after 16 to 18 hr by NCCLS agar dilution method
# [34] = system: Staphylococcus aureus; assay: Bactericidal activity against Staphylococcus aureus clinical isolate 9 after 24 hr; details: isolate 9, 24 h
# [35] = system: Staphylococcus aureus; assay: Antibacterial activity against Staphylococcus aureus clinical isolate 4 assessed as growth inhibition at pH 5 after 16 to 18 hr by NCCLS agar dilution method
# [36] = system: Staphylococcus aureus; assay: Antibacterial activity against Staphylococcus aureus clinical isolate 3 assessed as growth inhibition at pH 5 after 16 to 18 hr by NCCLS agar dilution method
# [37] = system: Staphylococcus aureus; assay: Antibacterial activity against Staphylococcus aureus clinical isolate 1 assessed as growth inhibition at pH 5 after 16 to 18 hr by NCCLS agar dilution method
# [38] = system: Staphylococcus aureus; assay: Bactericidal activity against methicillin-resistant Staphylococcus aureus isolate 5 after 24 hr; details: isolate 5, 24 h
# [39] = system: Staphylococcus aureus; assay: Bactericidal activity against methicillin-resistant Staphylococcus aureus isolate 4 after 24 hr; details: isolate 4, 24 h
# [40] = system: Staphylococcus aureus; assay: Bactericidal activity against methicillin-resistant Staphylococcus aureus isolate 2 after 24 hr; details: isolate 2, 24 h
# [41] = system: Staphylococcus aureus; assay: Antibacterial activity against methicillin-resistant Staphylococcus aureus assessed as growth inhibition after 16 to 18 hr by NCCLS agar dilution method
# [42] = system: Staphylococcus aureus; assay: Antibacterial activity against methicillin-resistant Staphylococcus aureus isolate 5 assessed as growth inhibition after 16 to 18 hr by NCCLS agar dilution method
# [43] = system: Staphylococcus aureus; assay: Antibacterial activity against Staphylococcus aureus clinical isolate assessed as growth inhibition after 16 to 18 hr by NCCLS agar dilution method
smiles,measurement,setting,value
CO/N=C/CC(=O)c1ccc(OC)cc1,MIC,[1],8 µg/mL
same,MIC,[2],8 µg/mL
same,MIC,[3],32 µg/mL
same,MIC,[4],16 µg/mL
same,MIC,[5],16 µg/mL
same,MIC,[6],64 µg/mL
same,MBC,[7],64 µg/mL
same,MBC,[8],64 µg/mL
same,MIC,[9],16 µg/mL
same,MIC,[10],16 µg/mL
same,MIC,[11],16 µg/mL
same,MIC,[12],16 µg/mL
same,MIC,[13],16 µg/mL
same,MIC,[14],8 µg/mL
same,MIC,[15],32 µg/mL
same,MIC,[16],32 µg/mL
same,MIC,[17],16 µg/mL
same,MIC,[18],32 µg/mL
same,MIC,[19],32 µg/mL
same,MIC,[20],8 µg/mL
same,MIC,[21],16 µg/mL
same,MIC,[22],8 µg/mL
same,MIC,[23],8 µg/mL
same,MIC,[24],16 µg/mL
same,MIC,[25],32 µg/mL
same,MIC,[26],32 µg/mL
same,MIC,[27],> 64 µg/mL
same,MIC,[28],16 µg/mL
same,MIC,[29],32 µg/mL
same,MIC,[30],16 µg/mL
same,MIC,[31],32 µg/mL
same,MIC,[32],32 µg/mL
same,MIC,[33],32 µg/mL
same,MBC,[34],128 µg/mL
same,MIC,[35],64 µg/mL
same,MIC,[36],32 µg/mL
same,MIC,[37],64 µg/mL
same,MBC,[38],256 µg/mL
same,MBC,[39],256 µg/mL
same,MBC,[40],256 µg/mL
same,MIC50,[41],8 µg/mL
same,MIC90,[41],8 µg/mL
same,MIC,[42],8 µg/mL
same,MIC50,[43],16 µg/mL
same,MIC90,[43],16 µg/mL
